Data as given in the NIST ThermoML archive (doi:10.1021/je9004992).

Assay: molar heat capacity at constant pressure
Settings: Liquid, Small sample (50 mg) DSC

CCCCCCCC[n+]1ccn(C)c1.F[B-](F)(F)F [1-methyl-3-octylimidazolium tetrafluoroborate]
molar heat capacity at constant pressure [J/K/mol]
Settings	283.15 K	288.15 K	293.15 K	298.15 K	303.15 K	308.15 K	313.15 K	318.15 K	323.15 K
100 kPa	489.23	493.12	496.79	500.26	503.51	506.55	509.38	512	514.41
2000 kPa	489.23	493.12	496.79	500.25	503.5	506.55	509.38	512	514.41
4000 kPa	489.23	493.12	496.79	500.25	503.5	506.54	509.37	512	514.41
6000 kPa	489.24	493.11	496.78	500.24	503.5	506.54	509.37	512	514.41
8000 kPa	489.24	493.11	496.78	500.24	503.49	506.53	509.37	512	514.41
10000 kPa	489.24	493.11	496.78	500.24	503.49	506.53	509.37	511.99	514.41
12000 kPa	489.24	493.11	496.78	500.23	503.48	506.53	509.36	511.99	514.42
14000 kPa	489.24	493.11	496.77	500.23	503.48	506.52	509.36	511.99	514.42
20000 kPa	489.24	493.11	496.76	500.22	503.47	506.51	509.35	511.99	514.42
30000 kPa	489.25	493.1	496.75	500.2	503.45	506.49	509.34	511.98	514.43
40000 kPa	489.26	493.09	496.73	500.18	503.42	506.47	509.32	511.98	514.44
50000 kPa	489.26	493.09	496.72	500.16	503.4	506.45	509.31	511.97	514.44
60000 kPa	489.27	493.08	496.7	500.14	503.38	506.43	509.3	511.97	514.45
